SMILES strings stand for the structures. “And” between values parts separate entries of the source, which are not always exact repeats. Identical values can stand only once. Like-named read-outs stand apart in the source and are kept apart here.

The values below come from patent publication US20250064990A1, “METHODS OF SCREENING FOR VMAT2 INHIBITORS” (Neurocrine Biosciences, Inc., priority 2021, published 2025).

In data set [1] the target is VMAT2 (Macaca fascicularis, UniProt A0A2K5UVB8). As to the kind of experiment: VMAT2 occupancy in NHP brain after i.v. NBI-98782, [^18F]AV-133 PET. The conditions noted are these: cynomolgus monkey. The format is in vivo, cynomolgus monkeys (Macaca fascicularis). An excerpt: A radioligand, [^18F]AV-133, has been used to image and quantify brain VMAT2 in vivo.
Sequence of VMAT2 (Macaca fascicularis, UniProt A0A2K5UVB8) (A0A2K5UVB8 entry or part of it): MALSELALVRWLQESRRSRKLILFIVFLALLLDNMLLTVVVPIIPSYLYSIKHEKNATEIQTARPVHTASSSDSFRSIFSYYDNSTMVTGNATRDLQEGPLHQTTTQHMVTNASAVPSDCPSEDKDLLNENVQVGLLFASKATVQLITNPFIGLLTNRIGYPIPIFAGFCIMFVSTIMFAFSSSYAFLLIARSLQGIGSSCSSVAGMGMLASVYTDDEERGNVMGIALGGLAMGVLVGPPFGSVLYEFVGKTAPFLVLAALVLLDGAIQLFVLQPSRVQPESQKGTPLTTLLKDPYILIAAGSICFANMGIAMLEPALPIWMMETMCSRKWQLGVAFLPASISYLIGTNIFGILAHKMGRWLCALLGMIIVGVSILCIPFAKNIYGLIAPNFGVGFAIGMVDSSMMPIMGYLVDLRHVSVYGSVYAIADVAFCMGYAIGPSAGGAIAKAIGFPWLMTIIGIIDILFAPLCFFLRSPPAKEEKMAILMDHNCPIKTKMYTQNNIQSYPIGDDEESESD
Two female non-naïve cynomolgus monkeys (Macaca fascicularis) were used in this study. The animals were judged to be in good health before the start of the study. At study origination, animals A7701 (Tag ID A5028) and A7702 (Tag ID A5029) were 4.45 kg/4 years 11 months and 4.75 kg/3 years 10 months, respectively.
Dynamic data were acquired in the MicroPET Focus-220 camera (Siemens Microsystems, Knoxville, TN). Emission data were collected for 120 min post-injection and reconstructed into a series of 33 frames and all standard corrections were applied: normalization, random, scatter and attenuation (via CT scan). Dynamic brain PET images were transferred and analyzed using the image processing PMOD software package v3.802 (PMOD Technologies, Zurich, Switzerland). The PET images were rigidly aligned to a previously acquired animal's brain T1 MRI and then spatially normalized to a common cynomolgus MRI template for anatomical brain region definition.
Volumes of interest (VOIs) defined in the cynomolgus template space (see e.g., Ballanger et al. Neuroimage, 2013, 77:26-43) were applied to the spatially normalized PET images to compute time-activity curves (TACs, kBq/cm^3) for caudate (0.96 cm^3), putamen (1.34 cm^3) and occipital (8.61 cm^3). TACs and images (averaged between 90-120 min) were presented in Standard Uptake Value (SUV) units (g/mL) normalized by the weight of the animal and the injected dose
Non-invasive Logan graphical analysis (start time of fit, t*=30 min) was used to estimate regional non-displaceable binding potential (BPND) using the TACs in the caudate and putamen, with the cerebellar cortex as the reference TAC. […] Target occupancy was calculated according to the Equation 2-1.
where h is the Hill slope (h=1.0) and C is the mean of observed plasma concentrations during the scanning interval (60 to 180 minutes post-dose).

Data set [2] is described as follows: NBI-98782 concentration in cynomolgus monkey plasma by LC-MS/MS. The format is in vivo, cynomolgus monkeys (Macaca fascicularis). Here is the method:
During each scan, whole blood PK samples were collected (in K2 EDTA tubes) at pre-dose (−5 min), and post-dose at 4 (approximately 1 min after completion of bolus), 30, 60 (just prior to [^18F]AV-133 radiopharmaceutical administration), 90, 120, 150, 180 (end of scan) minutes after test article administration. PK samples were approximately 1 mL each (8 mL total, including pre-dose sample).
Plasma samples were processed using liquid-liquid extraction with the additional of a stable isotopic labeled internal standard ^13C-83198. Processed samples were chromatographically separated on a C18 reversed phase column and coupled to a Sciex API 4000 triple quadrupole mass spectrometer for detection.
Quantitation was performed using a weighted 1/×2 linear least squares regression analysis generated from calibration standards prepared on the day of extraction. The liquid-liquid extraction began with the addition of internal standard solution (10.0 μL of approximately 400 ng/mL of [^13C]-radiolabeled [^13C]-NBI-98854 (i.e., [^13C]-valbenazine) and [^13C]-NBI-83198 (a racemic mixture of two dihydrotetrabenazine enantiomers). After adding 50.0 μL of sodium carbonate solution (0.2 M) and 2.00 mL of methyl tert-butyl ether to all samples, the tubes were sealed, vortexed, and centrifuged. Subsequently, the organic layer was transferred to clean tubes and evaporated to dryness. The samples were then reconstituted with 150 μL of reconstitution solution (water/methanol/acetic acid; 80:20:0.2), sealed, vortexed, sonicated and centrifuged. The reconstituted extract was then transferred into a 96-well plate. […] A triple quadrupole mass spectrometer (Sciex API 4000) equipped with TurboIonSpray source was used in the positive ion mode.

Data set [3] addresses T1, VMAT2 (Homo sapiens, UniProt Q05940). The conditions noted are these: Freeby et al., Mol. Imaging Biol. 2016; cited from earlier work.
For data set [4], the system named is VMAT2. As to the kind of experiment: Estimated VMAT2 target occupancy and clinical observations in cynomolgus monkey. The format is in vivo. The conditions noted are these: ~30 min to 1 h post-dosing, at estimated 96%-98% VMAT2 target occupancy. The source says:
As described below, there were adverse events at these doses, enabling a benchmarking of % TO values that could lead to adverse events.

The next data set relates to synaptic dopamine. As to the kind of experiment: Valbenazine effects on the dopamine system, [^11C]-PHNO PET. The format is in vivo, human. The conditions noted are these: 40-160 mg oral valbenazine, healthy volunteers, interim analysis, eight participants. An excerpt:
By way of example only, in some embodiments, “synaptic dopamine” can be measured non-invasively as follows. Subjects receive an oral dose of a VMAT2 inhibitor before administration of [^11C]-PHNO, with PET imaging occurring around the time of maximal VMAT2 inhibitor plasma concentration. The binding potential relative to the non-displaceable binding (BPND) in the putamen, caudate, and ventral striatum, is used as the primary endpoint. The cerebellum is used as the reference region to estimate the regional BPND. The measured increases in [^11C]-PHNO BPND relative to baseline (ΔBPND) correspond to decreases in synaptic dopamine following VMAT2 inhibitor administration. Other radioligands can be used. Alternatively, in some embodiments, indirect measurements of synaptic dopamine can be achieved via invasive techniques such as methods described in Huang M., et al., Pharmacology, Biochemistry and Behavior 190 (2020) 172872; and Bosche S. L., et al., Frontiers in Neuroscience, November 2021|Volume 15|Article 728092.
Interim imaging and tolerability data in an ongoing study were collected and analyzed in cohorts of 2-4 healthy volunteers. […] Plasma concentrations of valbenazine and (+)-α-dTBZ (dihydrotetrabenazine), the active metabolite of valbenazine, were measured at the start and end of each post-valbenazine PET scan. […]

Data set [5] in a line: Adverse events in healthy volunteers receiving valbenazine. The conditions noted are these: 40-160 mg valbenazine. The format is in vivo, human. Here is the method: Interim imaging and tolerability data in an ongoing study were collected and analyzed in cohorts of 2-4 healthy volunteers. For each scan, participants received an injection of the D2/D3 dopamine receptor agonist radioligand [^11C](+)4-propyl-3,4,4a,5,6,10b-hexahydro-2H-naphtho[1,2-b][1,4]oxazin-9-ol ([^11C]-PHNO), followed by 90 min of data acquisition using Siemens Biograph PET/CT. For post-valbenazine scans, participants received an oral dose of valbenazine 6-8 hours before the administration of [^11C]-PHNO, with PET imaging occurring around the time of maximal valbenazine plasma concentration. The binding potential relative to the non-displaceable binding (BPND) in the putamen, caudate, and ventral striatum, was used as the primary endpoint. The cerebellum was used as the reference region to estimate the regional BPND. Decreases in synaptic dopamine following valbenazine administration corresponded to an increase in [^11C]-PHNO BPND relative to baseline (ΔBPND). Plasma concentrations of valbenazine and (+)-α-dTBZ (dihydrotetrabenazine), the active metabolite of valbenazine, were measured at the start and end of each post-valbenazine PET scan. The mean plasma (+)-α-dTBZ concentration (Cave) was matched to the ΔBPND for each participant to provide an exposure-response curve.

Data set [6] deals with T1, VMAT2. In words: Estimated VMAT2 target occupancy in humans for valbenazine from NHP PET free EC50 and human PK. Type of data set: in vivo. Also noted: The free EC50 derived from NHP PET was then used to estimate % TO in humans; from tissue; host or cells: human brain in vivo (modelled, not imaged).

T1 sequence (Q05940 whole entry): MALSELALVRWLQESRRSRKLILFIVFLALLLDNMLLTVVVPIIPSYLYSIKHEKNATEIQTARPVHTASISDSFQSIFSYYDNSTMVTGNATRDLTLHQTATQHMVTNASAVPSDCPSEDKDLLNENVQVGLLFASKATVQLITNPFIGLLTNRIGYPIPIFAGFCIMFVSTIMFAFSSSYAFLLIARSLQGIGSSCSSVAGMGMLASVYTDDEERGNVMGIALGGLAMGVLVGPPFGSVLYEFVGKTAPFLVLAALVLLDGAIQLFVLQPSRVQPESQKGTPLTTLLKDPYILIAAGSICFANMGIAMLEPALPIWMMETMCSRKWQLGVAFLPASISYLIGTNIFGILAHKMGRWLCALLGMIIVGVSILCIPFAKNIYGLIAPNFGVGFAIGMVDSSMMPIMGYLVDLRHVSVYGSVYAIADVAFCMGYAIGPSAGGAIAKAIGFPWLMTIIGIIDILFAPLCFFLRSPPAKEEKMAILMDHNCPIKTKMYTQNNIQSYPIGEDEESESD

`COc1cc2c(cc1OC)[C@H]1C[C@@H](O)[C@H](CC(C)C)CN1CC2` [NBI-98782, (2R, 3R,11bR)-3-isobutyl-9,10-dimethoxy-1,3,4,6,7,11b-hexahydro-2H-pyrido[2,1-a]isoquinolin-2-ol]: the receptor occupancy at 0.04 mg/kg is 59.1% at VMAT2 [1] (iv, read-out: % Occ, animal A7701, Caudate, 0.04 mg/kg); 55.2% on VMAT2 [1] (iv, read-out: % Occ, animal A7701, Putamen, 0.04 mg/kg); 57% on VMAT2 [1] (read-out: Target Occupancy, Mean of Putamen and Caudate, A7701, total mass dose 0.04 mg/kg). Moreover, the receptor occupancy at 0.13 mg/kg at VMAT2 [1] (iv, read-out: % Occ, animal A7701, Caudate, 0.13 mg/kg) came out at 67.9%; at VMAT2 [1] (iv, read-out: % Occ, animal A7701, Putamen, 0.13 mg/kg) it was 70.8%; at VMAT2 [1] (iv, read-out: Occ, animal A7702, Caudate, 0.13 mg/kg) it was 77.5%; at VMAT2 [1] (iv, read-out: Occ, animal A7702, Putamen, 0.13 mg/kg) it was 79.1%; on VMAT2 [1] (read-out: Target Occupancy, Mean of Putamen and Caudate, A7701, total mass dose 0.13 mg/kg) it was 69%; on VMAT2 [1] (read-out: Target Occupancy, Mean of Putamen and Caudate, A7702, total mass dose 0.13 mg/kg), 78%. In addition, the receptor occupancy at 0.5 mg/kg at VMAT2 [1] (iv, read-out: % Occ, animal A7701, Caudate, 0.5 mg/kg) amounted to 89.4%; on VMAT2 [1] (iv, read-out: % Occ, animal A7701, Putamen, 0.5 mg/kg) it was 89.6%; on VMAT2 [1] (read-out: Target Occupancy, Mean of Putamen and Caudate, A7701, total mass dose 0.5 mg/kg), 90%. Besides, the receptor occupancy at 0.016 mg/kg on VMAT2 [1] (iv, read-out: % Occ, animal A7702, Caudate, 0.016 mg/kg) was found to be 18.7%; on VMAT2 [1] (iv, read-out: % Occ, animal A7702, Putamen, 0.016 mg/kg), 18.3%; at VMAT2 [1] (read-out: Target Occupancy, Mean of Putamen and Caudate, A7702, total mass dose 0.016 mg/kg), 19%. Also, the “Mean ng/mL NBI-98782 Concentration during PET Scan (60-180 min)” value came to 2.9 ng/mL in data set [2] (A7701, total mass dose 0.04 mg/kg i.v.); 44.5 ng/mL in data set [2] (A7701, total mass dose 0.5 mg/kg i.v.); 1.7 ng/mL in data set [2] (A7702, total mass dose 0.016 mg/kg i.v.); 14.9 ng/mL in data set [2] (A7702, total mass dose 0.13 mg/kg i.v.).
As to `COc1cc2c(cc1OCCC[18F])CCN1C[C@@H](CC(C)C)[C@H](O)C[C@H]21` [[^18F]AV-133], the “Test-retest for BPND” value on VMAT2 [3] was 9.4%.
`COc1cc2c(cc1OC)[C@H]1C[C@@H](OC(=O)[C@@H](N)C(C)C)[C@H](CC(C)C)CN1CC2` [valbenazine, (S)-2-amino-3-methyl-butyric acid (2R, 3R,11bR)-3-isobutyl-9,10-dimethoxy-1,3,4,6,7,11b-hexahydro-2H-pyrido[2,1-a]isoquinolin-2-yl ester]: in the data set with VMAT2 [4], the clinical observations entry is “partially closed eyes (ptosis) (in all monkeys), decreased activity (in ⅔ monkeys), and salivation (in 1 monkey)”. Further, in the data set with synaptic dopamine, the “increase in [^11C]-PHNO ΔBPND” value is 21-44% and 20-40%. Besides, the Adverse events result in data set [5] was “consistent with the known safety and tolerability profile of valbenazine”. Moreover, the “estimated VMAT2 occupancy maintained throughout each 24-hour period” value on VMAT2 [6] (doses clinically effective in tardive dyskinesia) is reported as at least 73%. The receptor occupancy at 40 mg at VMAT2 [6] (valbenazine 40 mg once-daily, read-out: estimated target occupancy for Cave) is about 80%.
